In general, EC50 refers to the concentration that produces a half-maximal response.

Calls of active or inactive are those of the source.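 The calls were made as follows: active = growth-inhibition EC50 no more than tenfold above the top tested dose; inconclusive = flat fit between 30% and 70% inhibition, or unreliable fit; inactive = EC50 more than tenfold above the top tested dose.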

The subject of this assay is E. coli NEB5alpha growth, BacTiter-Glo luminescence, 4 h. The assay can be described thus: Escherichia coli growth inhibition, dose response, counter-screen for MEX-5/POS-1 RNA-binding inhibitor project, luminescence, NEB5alpha (AID 1959).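 Also: pUC19-transformed ampicillin-resistant cells grown in LB with ampicillin.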
For `O=C(NCc1ccccn1)C1Nc2ccc(OC(F)(F)F)cc2C2C=CCC12` (centres undefined), the EC50 is > 11 µM (inactive). On to `Cc1cc(C=O)c(C)n1-c1cc(C(=O)O)cc(C(=O)O)c1`, for which the EC50 is > 11 µM (inactive). As for `CC1=C(C(=O)OCc2ccccc2)C(c2ccccc2[N+](=O)[O-])NC(=O)N1C` (centres undefined), the figure is > 11 µM (inactive); as for `O=C(NN1C(=O)c2ccccc2NC1c1ccccn1)c1ccc([N+](=O)[O-])cc1` (centres undefined), > 11 µM (inactive). Under `c1ccc(C2=NNC(c3ccccn3)=NN2)nc1` stands > 11 µM (inactive); under `COc1ccc(C2C(C(=O)c3ccco3)=C(O)C(=O)N2c2nnc(C)s2)cc1` (centres undefined), > 11 µM (inactive); under `CCOc1cc(/C=C/c2cccc[n+]2C)ccc1OCC(=O)Nc1ccc(C)cc1`, > 11 µM (inactive). Under `COc1ccc(C2C=C(c3ccc(Br)s3)Nc3ncnn32)cc1OC` (centres undefined) stands > 11 µM (inactive); under `Cc1ccc(N2C(=O)/C(=C/c3ccc(CN(CCC#N)S(C)(=O)=O)o3)C(=O)NC2=S)cc1C`, > 11 µM (inactive). Regarding `O=C(O)c1ccc(-n2cccc2/C=C2/NC(=O)N(c3ccccc3)C2=O)cc1`, the EC50 is > 11 µM (inactive). Under `CCc1cc(C(=O)Nc2ccc(OC)nc2)sc1C` stands > 11 µM (inactive); under `CCn1c(SCC(=O)Nc2cc(C)on2)nnc1-c1ccc(OC)cc1`, > 11 µM (inactive); under `Cc1ccc(-c2ccccc2)n1-c1ccc(C(=O)O)cc1`, > 11 µM (inactive). As for `CCn1c(=N)c(S(=O)(=O)c2ccccc2)cc2c(=O)n3ccccc3nc21`, the figure is > 11 µM (inactive); as for `CCOC(=O)c1cc(C(=O)OCC)cc(-n2c(C)cc(C(=O)CN3CCOCC3)c2C)c1`, > 11 µM (inactive). As for `CCOC(=O)Cc1nc2ccccc2n(CC#N)c1=O`, the figure is > 11 µM (inactive); as for `COc1ccc(NC(=O)C2Cc3ccccc3CN2C(=O)c2ccccc2)cn1` (centres undefined), > 11 µM (inactive); as for `CN1c2ccc(C=O)c3c(C=O)ccc(c23)N(C)C1(C)C`, > 11 µM (inactive). On to `CCC(=O)Nc1ccc2nc3c(=O)[nH]c(=S)[nH]c3nc2c1`, for which the EC50 was > 11 µM (inactive). As for `COc1ccc(CNC(=O)COC(=O)c2cc(-c3ccc(Cl)s3)nc3ccccc23)cc1`, the figure is > 11 µM (inactive). Under `COC(=O)CCC(=O)OC1(C)C(=O)C=C2C=C(c3ccsc3)OC=C2C1=O` (centres undefined) stands > 11 µM (inactive); under `CCOc1cc(/C=C2\C(=O)NN(c3ccccc3)C2=O)cc([N+](=O)[O-])c1O`, > 11 µM (inactive).

For the compound `Cc1cc(/C=C(/C#N)c2nc3ccccc3[nH]2)c(C)n1-c1cc(C(=O)O)cc(C(=O)O)c1`, the EC50 was > 11 µM (inactive).

With `Clc1cc(-c2ccc(/C=N/n3cnnc3)o2)ccc1Br`, the EC50 was > 11 µM (inactive).

In the case of `O=C1OCc2cc(-n3cccc3)ccc21`, the EC50 was > 11 µM (inactive). Under `COc1ccc(C2C(C#N)=C(N)OC3=C2C(=O)CC(C)(C)C3)c([N+](=O)[O-])c1OC` (centres undefined) stands > 11 µM (inactive); under `N#C/C(=C\N1CCN(Cc2ccc3c(c2)OCO3)CC1)c1nc2ccccc2s1`, > 11 µM (inactive).

On to `Cc1c(N=C2Nc3cccc4cccc2c34)c(=O)n(-c2ccccc2)n1C`, for which the EC50 is > 11 µM (inactive). As for `CCc1ccc(S(=O)(=O)Nc2cc(SCC(=O)O)c(O)c3ccccc23)cc1`, the figure is > 11 µM (inactive); as for `COc1cc(O)c(C(=O)O)c(-c2cc(O)c(O)cc2C)c1`, > 11 µM (inactive); as for `O=c1[nH]c(=O)n(-c2ccc(F)cc2)c(O)c1C=Nc1ccccc1N1CCCC1`, > 11 µM (inactive). Under `COc1ccc(CC(=O)NNC2=Nc3cccc4cccc2c34)cc1` stands > 11 µM (inactive); under `CCCNC(=O)c1ccc2c(=O)c(O)c(-c3ccc(F)cc3)[nH]c2c1`, > 11 µM (inactive); under `Cc1ccccc1NC(=O)/C(C#N)=C\c1cc(C)n(-c2ccc(C(=O)O)cc2)c1C`, > 11 µM (inactive). Under `O=C(O)Cn1cc(/C=C2\C(=O)NC(=O)N(c3ccc(F)cc3)C2=O)c2ccccc21` stands > 11 µM (inactive). With `COc1ccc(N/C(=C(/C(Cl)=C(Cl)Cl)[N+](=O)[O-])n2nnc3ccccc32)cc1`, the EC50 was > 11 µM (inactive).

For the compound `COC(=O)c1c(NC(=O)CC2Nc3ccccc3NC2=O)sc(C)c1C` (centres undefined), the EC50 was > 11 µM (inactive). For the compound `O=C(Nc1ccnn1C1CCN(CC2CC=CCC2)CC1)c1ccccc1` (centres undefined), the EC50 was > 11 µM (inactive). As for `Cc1cc([N+](=O)[O-])cc2c1NCC1CC=CC21` (centres undefined), the figure is > 11 µM (inactive); as for `Cc1n[nH]c(C)c1S(=O)(=O)N1CCCC(C(=O)Nc2ccc(Br)cc2)C1` (centres undefined), > 11 µM (inactive); as for `CCN1C=CC2=C(C#N)C(N)C(C#N)(C#N)C(c3ccccc3C(F)(F)F)C2C1` (centres undefined), > 11 µM (inactive).

Turning to `Cn1ncc2c(NNC(=O)c3ccc(O)cc3)ncnc21`, the EC50 is > 11 µM (inactive). Under `O=C(C1=C(O)C(=O)N(c2ncccn2)C1c1cccs1)c1ccco1` (centres undefined) stands > 11 µM (inactive); under `C1=CC2c3ccccc3NC(c3ccncc3)C2C1` (centres undefined), > 11 µM (inactive). As for `CCOC(=O)C1Nc2ccc(C)cc2C2C=CCC12` (centres undefined), the figure is > 11 µM (inactive). With `COc1ccc(N2C(=O)NC(=O)/C(=C/c3ccc4c(c3)Cc3ccccc3-4)C2=O)cc1`, the EC50 is > 11 µM (inactive). `CCN1CCc2c(sc(NC(=O)c3ccc4ccccc4c3)c2C(N)=O)C1`: the EC50 was > 11 µM (inactive). As for `O=C(c1ccccc1)[C@@H]1[C@@H]2C(=O)N(c3ccc(F)cc3)C(=O)[C@@H]2C2CCCN21` (some centres undefined), the figure is > 11 µM (inactive); as for `CCC(=O)OC1(C)C(=O)C2=COC(c3ccc(OC)cc3)=CC2=C(Br)C1=O` (centres undefined), > 11 µM (inactive); as for `Cc1cc(=O)oc2c(CN3CCC(C)CC3)c(O)c(Cl)cc12`, > 11 µM (inactive). As for `COC(=O)c1ccccc1-n1c(CCC(=O)O)ccc1-c1ccc(F)cc1`, the EC50 was > 11 µM (inactive).

As for `COCCNC(=O)Cn1cc(/C=C2\C(=O)NC(=O)N(c3ccccc3F)C2=O)c2ccccc21`, the EC50 was > 11 µM (inactive). As for `Cc1ccc2nc3sc(C(=O)N4CCOCC4)c(N)c3cc2c1`, the figure is > 11 µM (inactive); as for `Cc1ccc(/C=N/NC(=O)c2nnn(-c3nonc3N)c2-c2cccs2)cc1`, > 11 µM (inactive); as for `CC(=Nc1ccc(Br)cc1)c1sc2ccccc2c1O`, > 11 µM (inactive). As for `CCOC(=O)c1ccc(-n2c(CCC(=O)O)ccc2-c2ccccc2)cc1`, the figure is > 11 µM (inactive).

Take `Cc1ccccc1NS(=O)(=O)c1cc(C(=O)N2CCCC2)ccc1C`: the EC50 was > 11 µM (inactive). For `O=C(N/N=C/c1c(O)n(Cc2ccc(F)cc2)c(=O)[nH]c1=O)c1ccccc1O`, the EC50 is > 11 µM (inactive).

Regarding `Cc1cccn2c(=O)c3cc(S(=O)(=O)c4ccccc4)c(=N)n(Cc4cccnc4)c3nc12`, the EC50 was > 11 µM (inactive). Under `CN1Cc2c(c(C#N)c(N)n(C)c2=S)CC1(C)C` stands > 11 µM (inactive); under `COc1ccc(CCn2c(O)c(C=Nc3ccc(NC(C)=O)cc3)c(=O)[nH]c2=O)cc1OC`, > 11 µM (inactive); under `CCn1c(/C=C/c2ccc([N+](=O)[O-])o2)nc2ccccc2c1=O`, > 11 µM (inactive). As for `C=CCN1C(=O)/C(=C2/Sc3ccccc3N2CC)SC1=S`, the figure is > 11 µM (inactive).

For the compound `O=C(NNc1ccccn1)C(=O)NNS(=O)(=O)c1ccc(F)cc1`, the EC50 was > 11 µM (inactive). As for `CCN(CC)c1ccc(/C=C2\C(=O)NC(=S)N(c3ccc(OC)cc3OC)C2=O)o1`, the figure is > 11 µM (inactive); as for `COc1ccc(N2C(=O)NC(=O)/C(=C/c3ccc([N+](=O)[O-])s3)C2=O)cc1`, > 11 µM (inactive); as for `COc1ccccc1N1C(=O)C2C(C(=O)c3ccccc3)=NN(c3ccc(C)cc3)C2C1=O` (centres undefined), > 11 µM (inactive). Under `CCCCC1=CC2=C(c3ccco3)C(=O)C(C)(OC(=O)c3ccc(OC)cc3)C(=O)C2=CN1C1CC1` (centres undefined) stands > 11 µM (inactive); under `COC(=O)c1ccc(C2Nc3ccc(/C(C)=N/NC(=O)C(OC)c4ccccc4)cc3C3C=CCC32)cc1` (centres undefined), > 11 µM (inactive); under `CCN(CC)CCCNC(=O)CCC(=O)NNc1nc2ccccc2c2nc(C)nn12`, > 11 µM (inactive). Under `CC(=O)N=Cc1c(C)c(C#N)c(=O)n(C)c1O` stands > 11 µM (inactive). In the case of `CC(=C\c1ccco1)/C=C1/SC(=S)N(CC(=O)O)C1=O`, the EC50 was > 11 µM (inactive). For the compound `COc1ccc2nc3cc(Cl)ccc3c(Nc3cc(CN4CCCC4)c(O)c(CN4CCCC4)c3)c2n1`, the EC50 is > 11 µM (inactive). `O=C(N=C1SC2CS(=O)(=O)CC2N1c1ccccc1)C1CC1` (centres undefined): the EC50 was > 11 µM (inactive). Under `CN1CCC2(CC1)C(C#N)=C(N)NC(S)=C2C#N` stands > 11 µM (inactive). Consider `COc1ccccc1/C=C1/SC(=S)N(CCC(=O)Nc2cccnc2)C1=O`, for which the EC50 was > 11 µM (inactive).

Consider `c1ccc2[nH]c3cc4ncnc4cc3nc2c1`, for which the EC50 is > 11 µM (inactive). Under `Cc1cc(C=C2C(=O)c3ccccc3C2=O)c(C)n1-c1ccc(Cl)cc1` stands > 11 µM (inactive); under `O=C(Nc1ccccc1O)c1cccc(S(=O)(=O)Nc2ccccc2O)c1`, > 11 µM (inactive); under `Cc1ccc(S(=O)(=O)CCSc2nc(C)cc(C(F)(F)F)c2C#N)cc1`, > 11 µM (inactive). Take `Nc1ccc2nc3c(=O)[nH]c(=S)[nH]c3nc2c1`: the EC50 is > 11 µM (inactive). Under `O=C(CNS(=O)(=O)c1ccc([N+](=O)[O-])cc1)N/N=C/c1ccc(O)cc1O` stands > 11 µM (inactive); under `Cc1cc(/C=C2\C(=O)NC(=O)N(c3ccccc3F)C2=O)c(C)n1-c1cc(C(=O)O)cc(C(=O)O)c1`, > 11 µM (inactive); under `CCCSc1nnc(NC(=O)Nc2ccccc2)s1`, > 11 µM (inactive).

(Values after PubChem BioAssay AID1959 (Broad Institute, 2009).)
